Activity calls are given as the source filed them. No cut-off for these calls is given here.
Columns and labels:
Carbonic anhydrase 1 = Carbonic anhydrase 1 (Homo sapiens, UniProt P00915); experiment: Inhibition of human CA1 by stopped-flow carbon dioxide hydration assay
A549 [1] = experiment: Antiproliferative activity against human A549 cells assessed as cell growth inhibition measured after 72 hrs by SRB assay; type: functional, cell-based; details: A549, 72 h
A549 [2] = experiment: Antiproliferative activity against human A549 cells assessed as inhibition of cell growth at 100 microM measured after 72 hrs by SRB assay; type: functional
[3] = Inhibition of soya bean 15-LOX; parameters: species or system Glycine max
Carbonic anhydrase 12 = Carbonic anhydrase 12 (Homo sapiens, UniProt O43570); experiment: Inhibition of human CA12 by stopped-flow carbon dioxide hydration assay
Carbonic anhydrase 12, sequence (O43570 whole entry): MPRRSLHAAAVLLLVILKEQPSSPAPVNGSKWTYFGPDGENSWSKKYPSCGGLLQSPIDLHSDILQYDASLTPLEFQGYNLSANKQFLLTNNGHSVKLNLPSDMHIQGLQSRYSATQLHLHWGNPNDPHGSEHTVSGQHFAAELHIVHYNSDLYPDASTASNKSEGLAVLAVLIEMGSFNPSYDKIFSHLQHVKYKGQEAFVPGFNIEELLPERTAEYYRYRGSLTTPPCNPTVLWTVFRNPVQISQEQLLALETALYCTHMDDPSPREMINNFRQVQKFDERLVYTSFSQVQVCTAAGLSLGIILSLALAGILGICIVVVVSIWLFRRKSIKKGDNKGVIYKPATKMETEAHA

Carbonic anhydrase 9 = Carbonic anhydrase 9 (Homo sapiens, UniProt Q16790); experiment: Inhibition of human CA9 by stopped-flow carbon dioxide hydration assay
WI-38 = experiment: Cytotoxicity against human WI-38 cells assessed as reduction in cell viability after 72 hrs by SRB assay; type: cell-based; details: WI-38, 72 h
HepG2 [4] = experiment: Antiproliferative activity against human HepG2 cells assessed as inhibition of cell growth at 100 microM measured after 72 hrs by SRB assay; type: functional
MCF7 [5] = experiment: Antiproliferative activity against human MCF-7 cells assessed as inhibition of cell growth at 100 microM measured after 72 hrs by SRB assay; type: functional
[6] = target: T1, Prostaglandin G/H synthase 1 (Ovis aries, UniProt P05979); experiment: Inhibition of ovine COX1 by colorimetric analysis
T1 sequence (P05979 whole entry): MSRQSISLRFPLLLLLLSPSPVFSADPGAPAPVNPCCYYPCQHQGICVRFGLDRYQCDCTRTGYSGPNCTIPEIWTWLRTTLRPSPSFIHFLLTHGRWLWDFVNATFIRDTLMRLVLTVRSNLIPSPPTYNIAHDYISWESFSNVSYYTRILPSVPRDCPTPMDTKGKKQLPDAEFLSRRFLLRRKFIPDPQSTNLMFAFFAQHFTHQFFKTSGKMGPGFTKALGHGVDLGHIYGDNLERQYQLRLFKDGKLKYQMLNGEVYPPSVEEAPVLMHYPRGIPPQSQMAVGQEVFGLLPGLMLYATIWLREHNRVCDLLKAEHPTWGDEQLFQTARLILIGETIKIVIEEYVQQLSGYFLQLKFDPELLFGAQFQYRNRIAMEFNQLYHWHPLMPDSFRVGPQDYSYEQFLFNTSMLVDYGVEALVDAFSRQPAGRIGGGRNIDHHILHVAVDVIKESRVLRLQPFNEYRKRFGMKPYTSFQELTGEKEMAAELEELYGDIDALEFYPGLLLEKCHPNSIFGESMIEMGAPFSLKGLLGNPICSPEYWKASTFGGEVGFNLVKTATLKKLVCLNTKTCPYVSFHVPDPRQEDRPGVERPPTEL

THP-1 = experiment: Cytotoxicity against PMA/LPS-challenged human THP1 cells assessed as reduction in cell viability incubated for 24 hrs by MTS assay; type: functional, cell-based; details: THP-1, 24 h
HT-29 = experiment: Cytotoxicity against human HT-29 cells assessed as reduction in cell viability incubated for 24 hrs by MTS assay; type: functional, cell-based; details: HT-29, 24 h
Carbonic anhydrase 2 = Carbonic anhydrase 2 (Homo sapiens, UniProt P00918); experiment: Inhibition of human CA2 by stopped-flow carbon dioxide hydration assay
HepG2 [7] = experiment: Antiproliferative activity against human HepG2 cells assessed as cell growth inhibition measured after 72 hrs by SRB assay; type: functional, cell-based; details: HepG2, 72 h
MCF7 [8] = experiment: Antiproliferative activity against human MCF-7 cells assessed as cell growth inhibition measured after 72 hrs by SRB assay; type: functional, cell-based; details: MCF7, 72 h
A549 [9] = experiment: Induction of apoptosis in human A549 cells assessed as Bax expression at IC50 by ELISA (reference value: 42.16 +/-6.2 pg/ml); type: functional
A549 [10] = experiment: Induction of apoptosis in human A549 cells assessed as fold change in Bax expression at IC50 by ELISA relative to control; type: functional
A549 [11] = experiment: Induction of cell cycle arrest in human A549 cells assessed as accumulation at pre-G1 phase at IC50 measured after 24 hrs by propidium iodide/RNase staining based flow cytometry (reference value: 1.93%); type: functional
A549 [12] = experiment: Induction of apoptosis in human A549 cells assessed as caspase-9 expression at IC50 by ELISA (reference value: […] +/- […] ng/ml); type: functional
A549 [13] = experiment: Induction of apoptosis in human A549 cells assessed as fold change in Bcl2 expression at IC50 by ELISA relative to control; type: functional
A549 [14] = experiment: Induction of apoptosis in human A549 cells assessed as fold change in caspase-9 expression at IC50 by ELISA relative to control; type: functional
A549 [15] = experiment: Induction of apoptosis in human A549 cells assessed as late apoptotic cells at IC50 measured after 24 hrs by annexin V-FITC staining based flow cytometry (reference value: […]); type: functional
A549 [16] = experiment: Induction of apoptosis in human A549 cells assessed as total apoptotic cells at IC50 measured after 24 hrs by Annexin V-FITC/propidium iodide staining based flow cytometry (reference value: 0.92%); type: functional
A549 [17] = experiment: Induction of apoptosis in human A549 cells assessed as Bcl2 expression at IC50 by ELISA (reference value: 9.04 +/-0.1 ng/ml); type: functional
A549 [18] = experiment: Induction of cell cycle arrest in human A549 cells assessed as accumulation at G2/M phase at IC50 measured after 24 hrs by propidium iodide/RNase staining based flow cytometry (reference value: 9.86%); type: functional
A549 [19] = experiment: Induction of cell cycle arrest in human A549 cells assessed as accumulation at S phase at IC50 measured after 24 hrs by propidium iodide/RNase staining based flow cytometry (reference value: 31.88%); type: functional
A549 [20] = experiment: Induction of apoptosis in human A549 cells assessed as early apoptotic cells at IC50 measured after 24 hrs by annexin V-FITC staining based flow cytometry (reference value: 0.63%); type: functional
A549 [21] = experiment: Induction of apoptosis in human A549 cells assessed as necrotic cells at IC50 measured after 24 hrs by annexin V-FITC staining based flow cytometry (reference value: 1.01%); type: functional
A549 [22] = experiment: Induction of cell cycle arrest in human A549 cells assessed as accumulation at G0/G1 phase at IC50 measured after 24 hrs by propidium iodide/RNase staining based flow cytometry (reference value: 58.26%); type: functional
[23] = Toxicity in BALB/c mouse xenografted with human MCF7 cells assessed as body weight at 23 mg/kg, ip administered thrice a week for 28 days measured on day 28 (reference value: 29.8 gms); type: organism-based; details: in vivo, 672 h, time 28 day
MCF7 [24] = experiment: Antitumor activity against human MCF7 cells xenografted in BALB/c mouse assessed as reduction in tumor volume at 23 mg/kg, ip administered thrice a week for 28 days by vernier caliper analysis; type: functional; details: time 28 day
MCF7 [25] = experiment: Antiproliferative activity against human MCF-7 cells assessed as inhibition of cell growth at 100 microM measured after 72 hrs by SRB assay relative to celecoxib; type: functional; parameters: scale not given: the % may be the effect or the level left
[26] = Toxicity in ip dosed BALB/c mouse measured for 3 days; type: organism-based; details: in vivo, time 3 day

Carbonic anhydrase 1, sequence (P00915 whole entry): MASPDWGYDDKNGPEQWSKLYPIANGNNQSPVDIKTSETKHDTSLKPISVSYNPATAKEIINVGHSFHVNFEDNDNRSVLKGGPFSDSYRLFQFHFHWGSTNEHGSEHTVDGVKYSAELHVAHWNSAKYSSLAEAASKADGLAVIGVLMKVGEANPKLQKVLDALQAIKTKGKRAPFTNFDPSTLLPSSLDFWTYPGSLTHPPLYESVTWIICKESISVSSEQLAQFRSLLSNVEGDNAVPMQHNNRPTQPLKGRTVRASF

| SMILES | Ki (Carbonic anhydrase 1) [µM] | IC50 (A549 [1]) [µM] | inhibition at 100 µM (A549 [2]) [%] | IC50 [3] [µM] | Ki (Carbonic anhydrase 12) [µM] | Ki (Carbonic anhydrase 9) [µM] | IC50 (WI-38) [µM] | inhibition at 100 µM (HepG2 [4]) [%] | inhibition at 100 µM (MCF7 [5]) [%] | IC50 [6] [µM] | Ki (Carbonic anhydrase 2) [µM] | IC50 (HepG2 [7]) [µM] | IC50 (MCF7 [8]) [µM] | further results |
| --- | --- | --- | --- | --- | --- | --- | --- | --- | --- | --- | --- | --- | --- | --- |
| C/C(=N\Nc1nc(-c2ccc(Cl)cc2)cs1)c1nnn(-c2ccc(C(=O)O)cc2)c1C | 0.551 | 73.1 | 67 | 1.76 | > 100 | > 100 | 461 | 1.41 | 40.4 | 10.9 |  |  |  |  |
| O=C(O)Cc1ccccc1Nc1c(Cl)cccc1Cl [DICLOFENAC SODIUM] |  |  |  |  |  |  |  |  |  |  |  |  |  | IC50 (THP-1): 201 µM; IC50 (HT-29): 137 µM |
| Cc1c(-c2nn(-c3ccccc3)cc2/C=N/O)nnn1-c1ccc(S(N)(=O)=O)cc1 | 18.3 |  |  | 1.91 | > 100 | > 100 | 450 | 12.5 | 43.5 | 13.9 | 7.71 |  |  | inhibition (A549 [2]): inactive |
| Cc1ccc(-c2cc(C(F)(F)F)nn2-c2ccc(S(N)(=O)=O)cc2)cc1 [CELECOXIB] |  | 17.5 | 86.2 |  |  |  | 433 | 77.9 | 89.9 |  |  | 0.36 | 2.56 |  |
| C/C(=N\Nc1nc(-c2ccc(Cl)cc2)cs1)c1nnn(-c2ccc(S(=O)(=O)Nc3nccs3)cc2)c1C | > 100 | 99.3 | 51.1 | 1.19 | > 100 | > 100 | 468 | 56 | 39.9 | 14.2 | > 100 | 89.5 |  |  |
| C/C(=N\Nc1nc(-c2ccc(Cl)cc2)cs1)c1nnn(-c2ccc(S(N)(=O)=O)cc2)c1C | 0.252 | 28.5 | 68.1 | 1.34 | 0.0134 | 7.89 | 388 | 59 | 37.2 | 12.4 | 0.0141 | 72.4 |  | Activity (A549 [9]): 329.7 pg/mL; fold change (FC) (A549 [10]): 7.82; Activity (A549 [11]): 31.22%; Activity (A549 [12]): 12.69 ng/mL; fold change (FC) (A549 [13]): 0.51; fold change (FC) (A549 [14]): 10.56; IC50 (HT-29): 87.4 µM; Activity (A549 [15]): 19.59%; Activity (A549 [16]): 28.74%; Activity (A549 [17]): 4.95 ng/mL; Activity (A549 [18]): 44.85%; Activity (A549 [19]): 23.54%; Activity (A549 [20]): 9.15%; Activity (A549 [21]): 2.48%; Activity (A549 [22]): 31.61% |
| C/C(=N\NC(N)=O)c1nnn(-c2ccc(S(N)(=O)=O)cc2)c1C | 0.213 |  | 18.2 | 4.74 | 0.0198 | 4.22 | 365 |  | 5.8 | 5.9 | 0.0164 |  |  | inhibition (HepG2 [4]): inactive |
| Cc1c(-c2nn(-c3ccccc3)cc2/C=N/O)nnn1-c1ccc(C(=O)O)cc1 | 4.63 |  | 12.3 | 1.29 | 0.154 | 2.25 | 379 | 7.68 | 83.4 | 12.4 | 0.239 |  | 3.2 | Activity [23]: 27.3 g; Activity (MCF7 [24]): 0.45 cm3; Activity (MCF7 [25]): 80%; LD50 at 72 h [26]: 61.7 mg/kg |
| Cc1c(-c2nn(-c3ccccc3)cc2/C=N/O)nnn1-c1ccc(Cl)cc1 | > 100 | 55.7 | 69.7 | 1.47 | > 100 | > 100 | 402 | 79 | 97.8 | 12.9 | > 100 | 26.5 | 22 |  |
| Cc1c(-c2nn(-c3ccccc3)cc2/C=N/O)nnn1-c1ccc(F)cc1 | > 100 | 27 | 92.4 | 1.98 | > 100 | > 100 | 393 | 89 | 98.2 | 10.9 | > 100 | 31.1 | 5.32 |  |
| C/C(=N\NC(N)=S)c1nnn(-c2ccc(F)cc2)c1C | > 100 |  |  | 2.42 | > 100 | > 100 | 406 | 19.8 | 6.52 | 9.6 | > 100 |  |  | inhibition (A549 [2]): inactive |

From ChEMBL document CHEMBL4765344, “Expanding the anticancer potential of 1,2,3-triazoles via simultaneously targeting Cyclooxygenase-2, 15-lipoxygenase and tumor-associated carbonic anhydrases” (Eur J Med Chem, 2020)
